{"source": "patent US20160021921A1", "about": "“PRETERM INFANT NUTRITIONAL COMPOSITIONS CONTAINING BETA-HYDROXY-BETA-METHYLBUTYRIC ACID” (ABBOTT LABORATORIES, priority 2013, published 2016)", "type_in_all_cases": "in vivo, neonatal pigs", "key": {"elF2α": {"tested_on": "elF2α", "assay": "Phosphorylation of elF2α in muscles, immunoblotting", "settings": "one hour", "method": "(§1) Overnight fasted neonatal pigs (5-7 days old) were infused with HMB at 0, 20, 100, or 400 μmol·kg^−1·hr^−1 HMB. Blood plasma concentrations of the following circulating substrates were measured.\n(§2) At the end of the infusion, the piglets were sacrificed and the fractional protein synthesis rates were measured by measuring ^3H incorporation into protein fractions after a flooding dose of L[4-^3H]phenylalanine using the method set forth in Garlick, P. J., “A rapid and convenient technique for measuring the rate of protein synthesis in tissues by injection of [3H]Phenylalanine,” Biochem J (1980), Vol. 192, 719-723. Activation of translation initiation was measured in the stomach, duodenum, jejunum, colon, pancreas, kidney, brain and skin. The abundance of intracellular proteins involved in signaling of protein synthesis and in processes related to protein degradation was measured in tissue homogenates by immunoblotting using commercially available antibodies."}, "e1F4E•e1F4G complex": {"tested_on": "e1F4E•e1F4G complex", "assay": "Formation of the active e1F4E•e1F4G complex in muscles (FIG. 11)", "settings": "one hour", "method": "as §1, §2"}, "Atrogin-1": {"tested_on": "Atrogin-1", "assay": "Expression of Atrogin-1 in muscles, immunoblotting", "settings": "one hour", "method": "as §1, §2"}, "[1]": {"tested_on": "protein synthesis in skeletal muscles (longissimus dorsi, gastrocnemius, soleus, diaphragm)", "assay": "Fractional protein synthesis rate in skeletal muscles, L[4-3H]phenylalanine flooding dose", "method": "as §1, §2"}, "LC3-II/LC3-I": {"tested_on": "LC3-II/LC3-I", "assay": "Ratio of LC3-II/LC3-I in muscles (autophagy/lysosomal protein degradation)", "settings": "one hour", "method": "as §1, §2"}, "eEF2": {"tested_on": "eEF2", "assay": "Phosphorylation of eEF2 in muscles, immunoblotting", "settings": "one hour", "method": "as §1, §2"}, "[2]": {"tested_on": "protein synthesis in the lung and spleen", "assay": "Fractional protein synthesis rate in lung and spleen", "settings": "20 μmol·kg^−1·hr^−1 HMB for one hour", "method": "as §1, §2"}, "4EBP1": {"tested_on": "4EBP1", "assay": "Phosphorylation of 4EBP1 in muscles, immunoblotting", "settings": "one hour", "method": "as §1, §2"}, "MURF1": {"tested_on": "MURF1", "assay": "Expression of MURF1 in muscles, immunoblotting", "settings": "one hour", "method": "as §1, §2"}, "S6K1": {"tested_on": "S6K1", "assay": "Phosphorylation of S6K1 in muscles, immunoblotting", "settings": "one hour", "method": "as §1, §2"}, "amino acid transporters": {"tested_on": "amino acid transporters", "assay": "Level of amino acid transporters in piglet tissues", "settings": "HMB-infused piglets", "method": "as §2"}, "[3]": {"settings": "20 μmol·kg^−1·hr^−1 HMB, diaphragm"}, "[4]": {"settings": "20 μmol·kg^−1·hr^−1 HMB, longissimus dorsi, gastrocnemius, soleus"}, "[5]": {"settings": "100 μmol·kg^−1·hr^−1 HMB, diaphragm"}, "[6]": {"settings": "100 μmol·kg^−1·hr^−1 HMB, longissimus dorsi, gastrocnemius, soleus"}}, "note": "Entries after “also recorded” stand apart in the source; their conditions may differ.", "data": [{"smiles": "CC(C)(O)CC(=O)O", "note": "[HMB, beta-hydroxy-beta-methylbutyric acid]", "values": [{"measurement": "phosphorylation of elF2a", "setting": "elF2α; 20 μmol·kg^−1·hr^−1 HMB", "result": "did not affect"}, {"measurement": "phosphorylation of elF2a", "setting": "elF2α; 100 μmol·kg^−1·hr^−1 HMB", "result": "did not affect"}, {"measurement": "formation of active eIF4E•eIF4G complex", "setting": "e1F4E•e1F4G complex; [3]", "result": "increased"}, {"measurement": "formation of active eIF4E•eIF4G complex", "setting": "e1F4E•e1F4G complex; [4]", "result": "increased"}, {"measurement": "formation of active eIF4E•eIF4G complex", "setting": "e1F4E•e1F4G complex; [5]", "result": "not"}, {"measurement": "formation of active eIF4E•eIF4G complex", "setting": "e1F4E•e1F4G complex; [6]", "result": "increased"}, {"measurement": "expression of Atrogin-1", "setting": "Atrogin-1; 20 μmol·kg^−1·hr^−1 HMB", "result": "did not affect"}, {"measurement": "expression of Atrogin-1", "setting": "Atrogin-1; 100 μmol·kg^−1·hr^−1 HMB", "result": "did not affect"}, {"measurement": "fractional rate of protein synthesis", "setting": "[1]; 20 μmol·kg^−1·hr^−1 HMB, longissimus dorsi, gastrocnemius, soleus, diaphragm, P<0.05", "result": "increased; also recorded: greatest impact"}, {"measurement": "fractional rate of protein synthesis", "setting": "[1]; 100 μmol·kg^−1·hr^−1 HMB, gastrocnemius, soleus, diaphragm", "result": "not significantly"}, {"measurement": "fractional rate of protein synthesis", "setting": "[1]; 100 μmol·kg^−1·hr^−1 HMB, longissimus dorsi muscle, P<0.05", "result": "increased"}, {"measurement": "fractional rate of protein synthesis", "setting": "[1]; 400 μmol·kg^−1·hr^−1 HMB, skeletal muscles", "result": "no significant effect; also recorded: least impact"}, {"measurement": "effectiveness in increasing protein synthesis compared with leucine", "setting": "[1]; HMB 20, 100 or 400 vs leucine 400 μmol·kg^−1·hr^−1, longissimus dorsi, gastrocnemius, soleus, diaphragm, duodenum, brain", "result": "equal to or more effective; also recorded: as effective as leucine"}, {"measurement": "ratio of LC3-II/LC3-I", "setting": "LC3-II/LC3-I; 20 μmol·kg^−1·hr^−1 HMB", "result": "did not affect"}, {"measurement": "ratio of LC3-II/LC3-I", "setting": "LC3-II/LC3-I; 100 μmol·kg^−1·hr^−1 HMB", "result": "did not affect"}, {"measurement": "phosphorylation of eEF2", "setting": "eEF2; 20 μmol·kg^−1·hr^−1 HMB", "result": "did not affect"}, {"measurement": "phosphorylation of eEF2", "setting": "eEF2; 100 μmol·kg^−1·hr^−1 HMB", "result": "did not affect"}, {"measurement": "fractional rate of protein synthesis in lung and spleen", "setting": "[2]", "result": "increased"}, {"measurement": "phosphorylation of 4EBP1", "setting": "4EBP1; [3]", "result": "increased"}, {"measurement": "phosphorylation of 4EBP1", "setting": "4EBP1; [4]", "result": "increased"}, {"measurement": "phosphorylation of 4EBP1", "setting": "4EBP1; [5]", "result": "not"}, {"measurement": "phosphorylation of 4EBP1", "setting": "4EBP1; [6]", "result": "increased"}, {"measurement": "expression of MURF1", "setting": "MURF1; 20 μmol·kg^−1·hr^−1 HMB", "result": "did not affect"}, {"measurement": "expression of MURF1", "setting": "MURF1; 100 μmol·kg^−1·hr^−1 HMB", "result": "did not affect"}, {"measurement": "phosphorylation of S6K1", "setting": "S6K1; [3]", "result": "increased"}, {"measurement": "phosphorylation of S6K1", "setting": "S6K1; [4]", "result": "increased"}, {"measurement": "phosphorylation of S6K1", "setting": "S6K1; [5]", "result": "not"}, {"measurement": "phosphorylation of S6K1", "setting": "S6K1; [6]", "result": "increased"}, {"measurement": "level of amino acid transporters", "setting": "amino acid transporters", "result": "did not affect"}]}]}
